These results are taken from patent US20250340565A1, “CD73 INHIBITOR COMPOUNDS” (AdoRx Therapeutics Limited, priority 2022, published 2025).

For assay [1], the target named is human (h)CD73 (amino acids Trp27-Lys547) (Homo sapiens, UniProt P21589). Briefly: CD73 inhibition assay (Malachite Green phosphate detection). Type of assay: biochemical. The note with it: 250 pM hCD73, 12.5 μM AMP, 20 min pre-incubation, absorbance 620 nm. The procedure:
Compound inhibition of human (h)CD73 (amino acids Trp27-Lys547, R&D Systems 5795-EN-500) enzymatic activity was tested via the Malachite Green Phosphate Detection Kit (R&D DY996). Experiments were performed in 20 μL Tris buffer (25 mM Tris pH 7.5, 5 mM MgCl2, 0.002% Tween20), with 250 pM of hCD73. Test compounds of interest were prepared in a threefold serial dilution in DMSO and added to the assay to give the appropriate final concentration, with the assay DMSO concentration being 1%. Compounds were pre-incubated for 20 minutes with hCD73 in a 384 well clear plate (Greiner 781101), followed by the addition of adenosine monophosphate (AMP) to 12.5 μM. The enzymatic reaction was carried out for 20 min at room temperature. 5 μL of Malachite kit reagent A was added to stop the reaction (contains 3M H2SO4) and after 10 min, 5 μL of Malachite kit reagent B was added (Malachite Green). After 30 min, absorbance at 620 nm was read on a BMG Pherastar FSX.
Data were normalised to measurements in the absence of competing compound (0% inhibition) and in the presence of 10 μM control compound (100% inhibition).

Assay [2] has as its target CD73 activity in U138-MG cells (Homo sapiens (Human), UniProt P21589). Briefly: U138-MG inhibition assay (inorganic phosphate from AMP, PiColorLock Gold). Type of assay: cell-based. Particulars: 100 μM AMP, 30 min pre-incubation, 1 hour at 37° C. The procedure: U138-MG cells from ATCC are cultured in DMEM (Gibco 31966) with 10% FBS. Cells are seeded into 96-well culture plates (5,000 cell/well) in 100 μL of media for 24 hr. Cells are washed twice with 200 μL of assay buffer (20 mM HEPES, pH 7.4; 137 mM NaCl; 5.4 mM KCl; 1.3 mM CaCl2; 4.2 mM NaHCO3; 1 mg/mL glucose) to remove residual inorganic phosphate. CD73 inhibitor is added to each well in 100 μl volume and preincubated for 30 mins at 37° C. An equal volume of AMP substrate (Sigma A1572) is added to each well at a final concentration of 100 μM and incubated at 37° C. for 1 hour. Control wells containing cells but lacking added AMP, define the assay signal equivalent to 100% inhibition of CD73 activity. Supernatant is removed for measurement of inorganic phosphate using the PiColorLock Gold kit (Abcam, ab 270004).
The IC50 values of test compounds are determined as the inflection point of the sigmoidal concentration response curve.

For a further assay, the target named is CD73 in whole blood (Homo sapiens (Human), UniProt P21589). Briefly: Whole blood AMP Glo assay. Format: cell-based. Particulars: whole blood of healthy volunteers, 10 μM AMP, 30 min pre-incubation, 15 min at 37° C., levamisole 1.5 mM. How it is done: Blood is drawn from healthy volunteers by venepuncture and anti-coagulated with Lithium Heparin (10 IU/mi). 150 μl of blood is added to U-bottom polypropylene 96-well assay plates pre-filled with 20 μl of compound dilutions prepared in RPMI also containing the Tissue Non-specific Alkaline Phosphatase inhibitor Levamisole (final assay concentration 1.5 mM). Control wells to define uninhibited CD73 contain DMSO in place of compound. Control wells to define complete stabilization of AMP attributable to CD73 contain LY3475070 (CAS: 2375815-63-5) at 30 μM final assay concentration.
CD73 in whole blood, sequence (P21589 27-574): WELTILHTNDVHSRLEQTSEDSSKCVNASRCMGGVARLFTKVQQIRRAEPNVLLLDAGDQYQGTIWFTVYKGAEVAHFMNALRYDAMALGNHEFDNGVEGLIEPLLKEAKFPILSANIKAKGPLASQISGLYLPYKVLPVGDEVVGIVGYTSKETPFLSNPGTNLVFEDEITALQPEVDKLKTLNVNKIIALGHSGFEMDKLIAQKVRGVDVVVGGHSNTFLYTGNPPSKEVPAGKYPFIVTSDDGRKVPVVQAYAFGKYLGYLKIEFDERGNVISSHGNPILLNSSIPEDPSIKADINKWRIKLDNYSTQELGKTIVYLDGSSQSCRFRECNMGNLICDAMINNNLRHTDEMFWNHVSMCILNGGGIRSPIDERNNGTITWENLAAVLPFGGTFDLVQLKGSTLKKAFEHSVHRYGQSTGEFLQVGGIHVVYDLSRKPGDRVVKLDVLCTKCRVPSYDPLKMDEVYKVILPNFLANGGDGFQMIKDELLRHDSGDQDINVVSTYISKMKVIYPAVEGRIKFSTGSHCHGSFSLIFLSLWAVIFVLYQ
Compounds are pre-incubated with whole blood at 37° C. for 30 minutes. Following this, AMP is added in a 30 μl volume for a final assay concentration of 10 μM, mixed, and the plates are incubated for 15 minutes at 37° C. Final DMSO concentration/well is 0.6% and final volume/well is 200 μL. After incubating with AMP, the plates are placed on ice and then centrifuged at 2000 g for 10 minutes at 4° C. Plasma is removed and then diluted 1:10 with pre-chilled HBSS (Ca2+& Mg2+free) and kept on ice.
The stabilized AMP concentration in diluted plasma is measured using AMP-Glo kit (Promega), in parallel with a standard curve of known AMP concentrations, with a final volume of 40 μl in white flat bottom half-well 96-well plates (Corning). Signal is measured by Luminescence. The IC50 values of test compounds are determined as the inflection point of the sigmoidal concentration response curve.

CD73 activity in U138-MG cells, sequence (P21589 27-574): as above

By IC50 is commonly meant the concentration that inhibits the measured activity by half. High values mean lower potency, low ones higher potency. `CC1(C)CN(c2ncnc3sc(-c4c[nH]c(=O)[nH]c4=O)cc23)C1` [Example 1.2, 5-[4-(3,3-Dimethylazetidin-1-yl)thieno[2,3-d]pyrimidin-6-yl]-1H-pyrimidine-2,4-dione]: the IC50 turned out to be 0.428 µM in assay [1] and 1.01 µM in assay [2].

`O=c1[nH]cc(-c2cc3c(N4CCC(OCc5ccccc5)C4)ncnc3s2)c(=O)[nH]1` (stereo not shown) [Example 4.2, 5-[4-(3-Benzyloxypyrrolidin-1-yl)thieno[2,3-d]pyrimidin-6-yl]-1H-pyrimidine-2,4-dione]: the IC50 in assay [1] was 0.197 µM; in assay [2], 3.14 µM.

On to `CC1(C)CN(c2ncnc3nc(-c4c[nH]c(=O)[nH]c4=O)sc23)CC1(F)F` [Example 6.1, 5-[7-(3,3-difluoro-4,4-dimethyl-pyrrolidin-1-yl)thiazolo[4,5-d]pyrimidin-2-yl]-1H-pyrimidine-2,4-dione], for which the figures for the IC50 in assay [1] and in assay [2] were 0.094 µM and 0.066 µM, respectively.

`O=c1[nH]cc(-c2cc3c(N4CCC(OCCN5CCCCC5)C4)nccc3s2)c(=O)[nH]1` (stereo not shown) [Example 9, 5-[4-[3-[2-(1-Piperidyl)ethoxy]pyrrolidin-1-yl]thieno[3,2-c]pyridin-2-yl]-1H-pyrimidine-2,4-dione] yielded an IC50 in assay [1] of 0.283 µM.

As to `O=c1[nH]cc(-n2cc3c(N4C[C@@H]5COC[C@H]5C4)ncnc3n2)c(=O)[nH]1` [Example 13.10, 5-[4-[(3aR,6aR)-1,3,3a,4,6,6a-Hexahydrofuro[3,4-c]pyrrol-5-yl]pyrazolo[3,4-d]pyrimidin-2-yl]-5H-pyrimidine-2,4-dione], the IC50 in assay [2] is 2.5 µM. In other words, the single-digit micromolar range.

On to `CC1(C)CN(c2ccnc3sc(-c4c[nH]c(=O)[nH]c4=O)cc23)CC1(F)F` [Example 14.1, 5-[4-(3,3-Difluoro-4,4-dimethyl-pyrrolidin-1-yl)thieno[2,3-b]pyridin-2-yl]-1H-pyrimidine-2,4-dione], for which the results for the IC50 in assay [1] and in assay [2] were 0.256 µM and 1.32 µM, respectively.

`O=c1[nH]cc(-c2cc3c(NCc4ccc(Cl)cc4)ncnc3o2)c(=O)[nH]1` [Example 19.2, 5-[4-[(4-Chlorophenyl)methylamino]furo[2,3-d]pyrimidin-6-yl]-1H-pyrimidine-2,4-dione] displayed an IC50 in assay [1] of 9.73 µM.

With `CC(C)NC(=O)OCC(F)(F)CNc1ncnc2oc(-c3c[nH]c(=O)[nH]c3=O)cc12` [Example 20, [3-[[6-(2,4-Dioxo-1H-pyrimidin-5-yl)furo[2,3-d]pyrimidin-4-yl]amino]-2,2-difluoro-propyl]N-isopropylcarbamate], the IC50 worked out at 0.834 µM in assay [1] and 0.744 µM in assay [2].

For the compound `CC(C)NC(=O)OC1CN(c2ncnc3oc(-c4c[nH]c(=O)[nH]c4=O)cc23)CC1(F)F` (stereo not shown) [Example 22.2, [1-[6-(2,4-Dioxo-1H-pyrimidin-5-yl)furo[2,3-d]pyrimidin-4-yl]-4,4-difluoro-pyrrolidin-3-yl]N-isopropylcarbamate], the IC50 was 0.17 µM in assay [1] and 0.0549 µM in assay [2].

For the compound `O=c1[nH]cc(-c2cc3c(N4CC(F)(F)C5(CC5)C4)nccn3n2)c(=O)[nH]1` [Example 25.2, 5-[4-(7,7-Difluoro-5-azaspiro[2.4]heptan-5-yl)pyrazolo[1,5-a]pyrazin-2-yl]-1H-pyrimidine-2,4-dione], the IC50 in assay [1] was found to be 0.0837 µM; in assay [2] it was 0.0588 µM.

As for `COC1CN(c2nccn3nc(-c4c[nH]c(=O)[nH]c4=O)cc23)CC1(F)F` (stereo not shown) [Example 25.3, 5-[4-(3,3-difluoro-4-methoxy-pyrrolidin-1-yl)pyrazolo[1,5-a]pyrazin-2-yl]-1H-pyrimidine-2,4-dione], the results for the IC50 in assay [1] and in assay [2] were 0.0547 µM and 0.091 µM, respectively.

Turning to `O=c1[nH]cc(-c2cc3c(N4CCC5(COC5)C4)nccn3n2)c(=O)[nH]1` [Example 25.4, 5-[4-(2-oxa-7-azaspiro[3.4]octan-7-yl)pyrazolo[1,5-a]pyrazin-2-yl]-1H-pyrimidine-2,4-dione], the IC50 in assay [1] was 0.141 µM; in assay [2], 0.115 µM.

Consider `O=c1[nH]cc(-c2cc3c(N4CC(O)C(F)(F)C4)nccn3n2)c(=O)[nH]1` (stereo not shown) [Example 25.5, 5-[4-(3,3-difluoro-4-hydroxy-pyrrolidin-1-yl)pyrazolo[1,5-a]pyrazin-2-yl]-1H-pyrimidine-2,4-dione], for which the IC50 in assay [1] was 0.0719 µM; in assay [2] it was 0.17 µM.

Regarding `CN1CCOC(COC2CN(c3nccn4nc(-c5c[nH]c(=O)[nH]c5=O)cc34)CC2(F)F)C1` (stereo not shown) [Example 25.6, 5-[4-[3,3-difluoro-4-[(4-methylmorpholin-2-yl)methoxy]pyrrolidin-1-yl]pyrazolo[1,5-a]pyrazin-2-yl]-1H-pyrimidine-2,4-dione], the IC50 in assay [1] is 0.099 µM; in assay [2], 0.046 µM.

Take `O=c1[nH]cc(-c2cc3c(N4CC(OCCN5CCOCC5)C(F)(F)C4)nccn3n2)c(=O)[nH]1` (stereo not shown) [Example 25.7, 5-[4-[3,3-difluoro-4-(2-morpholinoethoxy)pyrrolidin-1-yl]pyrazolo[1,5-a]pyrazin-2-yl]-1H-pyrimidine-2,4-dione]: the figures for the IC50 in assay [1] and in assay [2] were 0.132 µM and 0.065 µM, respectively.

For the compound `CC1(C)CN(c2ncc(F)n3nc(-c4c[nH]c(=O)[nH]c4=O)cc23)CC1(F)F` [Example 25.10, 5-[4-(3,3-difluoro-4,4-dimethyl-pyrrolidin-1-yl)-7-fluoro-pyrazolo[1,5-a]pyrazin-2-yl]-1H-pyrimidine-2,4-dione], the IC50 in assay [2] was determined as 0.005 µM; against CD73 in whole blood, 0.056 µM.

For the compound `CC1(C)CN(c2ncc(I)n3nc(-c4c[nH]c(=O)[nH]c4=O)cc23)CC1(F)F` [Example 25.12, 5-[4-(3,3-difluoro-4,4-dimethyl-pyrrolidin-1-yl)-7-iodo-pyrazolo[1,5-a]pyrazin-2-yl]-1H-pyrimidine-2,4-dione], inhibition in assay [2] was half-maximal at 0.038 µM (IC50).

Regarding `Cc1nc(N2CC(C)(C)C(F)(F)C2)c2cc(-c3c[nH]c(=O)[nH]c3=O)nn2c1Cl` [Example 25.15, 5-[7-Chloro-4-(3,3-difluoro-4,4-dimethyl-pyrrolidin-1-yl)-6-methyl-pyrazolo[1,5-a]pyrazin-2-yl]-1H-pyrimidine-2,4-dione], half-maximal inhibition in assay [2] (IC50) required 0.018 µM. This IC50 lies about 2.1-fold lower than the previous one.

For the compound `COC1CN(c2ncc(F)c3nn(-c4c[nH]c(=O)[nH]c4=O)cc23)CC1(F)F` (stereo not shown) [Example 26.2, 5-[4-(3,3-difluoro-4-methoxy-pyrrolidin-1-yl)-7-fluoro-pyrazolo[4,3-c]pyridin-2-yl]-1H-pyrimidine-2,4-dione], the IC50 in assay [1] is 0.0433 µM; in assay [2], 0.012 µM.

Take `O=c1[nH]cc(-n2cc3c(N4CC(O)C(F)(F)C4)ncc(F)c3n2)c(=O)[nH]1` (stereo not shown) [Example 26.3, 5-[4-(3,3-difluoro-4-hydroxy-pyrrolidin-1-yl)-7-fluoro-pyrazolo[4,3-c]pyridin-2-yl]-1H-pyrimidine-2,4-dione]: the IC50 in assay [1] was found to be 0.0351 µM; in assay [2] it was 0.016 µM.

For the compound `CN1CCOC(COC2CN(c3ncc(F)c4nn(-c5c[nH]c(=O)[nH]c5=O)cc34)CC2(F)F)C1` (stereo not shown) [Example 26.6, 5-[4-[3,3-difluoro-4-[(4-methylmorpholin-2-yl)methoxy]pyrrolidin-1-yl]-7-fluoro-pyrazolo[4,3-c]pyridin-2-yl]-1H-pyrimidine-2,4-dione], the IC50 in assay [1] amounted to 0.059 µM; in assay [2], 0.011 µM.
